Patent US8076346B2 (priority 2000, dated 2011)

Tests used:
[1] = Pharmacokinetics of DPB after oral DPB or NaDPB and IV NaDPB in Sprague-Dawley rats; format: in vivo; settings: for AUC(0-t): Sprague-Dawley, 150 mg/kg; for AUC(0-t) / Cmax / Tmax / half-life / bioavailability: rat, in vivo; for bioavailability: read-out: F (absolute bioavailability)
Experimental: (§1) In accordance with the present invention, pharmacokinetic parameters were calculated using standard non-compartmental methods, as implemented in WinNonlin™ 4.0.1. […] The mean, SD and CV (%) were used to calculate the AUC0-t (μg·h/mL), C. (μg/ml) (the maximum observed concentration), Tmax (hours) (the time to reach that peak concentration) and Kel (the elimination rate constant) for each animal and each analyte.
(§2) AUC0-t was calculated using the linear trapezoidal rule, which employs an approximate integration formula. The area of each trapezoid was calculated, and the sum of all the areas of all the trapezoids yielded an estimate of the true area under the curve. (See, Gibaldi et al. Pharmacokinetics. 2nd Ed. Marcel Dekker, Inc., 1982; Yeh et al., A comparison of numerical integrating algorithms by trapezoidal, lagrange, and spline approximations. J. Pharmacokinet Biopharm. 6: 79 (1978), the disclosure of which is herein incorporated by reference.) Cmax and Tmax were then determined for each concentration vs. time profile. Elimination rate constant (Kel) was calculated using regression analyses on the natural log (ln) of plasma concentration values (y) versus time (x).
We examined the delivery of DPB to the vascular compartment by administrating directly DPB and compared it with the sodium salt of DPB. This study compared the pharmacokinetics of DPB after oral administration of DPB (150 mg/kg) and sodium salt of DPB (150 mg/kg) in rats. Fifty-four rats were administered DPB and sodium salt of DPB by a single oral gavage (n=54). Blood samples were obtained (approximately 0.5 mL each) were collected following each treatment from animal via the jugular vein. Blood samplings from groups of 3 rats/sex/time point were collected at various times after dosing, in order to provide the complete time-points of pre-dose, 0, 0.5, 1, 2, 3, 4, 6, 12, 18, 24, 36 and 48 hours after dosing. Each blood sample was collected into a tube containing lithium heparin and the samples were spun in a refrigerated centrifuge. The resultant plasma was stored at −80° C. prior to analysis. DPB was quantified in plasma using HPLC (LLOQ=0.25 μg/mL).
(§3) We calculated AUC0-t for DPB at various times (24, 36 and 48 hours) after oral administrations of DPB and sodium salt of DPB.

[2] = Pharmacokinetics of DPB after oral DPB or NaDPB and IV NaDPB in Beagle dogs; format: in vivo; settings: for AUC(0-t): Beagle, 75 mg/kg
Experimental: as §1, §2
We examined the delivery of DPB to the vascular compartment by administrating directly DPB and compared it with the sodium salt of DPB in dogs. This study compared the pharmacokinetics of DPB after oral administration of a single dose of DPB (75 mg/kg) or sodium salt of DPB (75 mg/kg) in Beagle dogs. Twenty-eight Beagle dogs were administered DPB and sodium salt of DPB by a single oral gavage (n=24). Blood samples were obtained pre-dose and 0.5, 1, 2, 3, 4, 6, 12, 18, 24, 36 and 48 hours after dosing. DPB was quantified in plasma using HPLC (LLOQ=0.25 μg/mL).
as §3

[3] = Brain concentration of DPB after oral DPB or NaDPB and IV NaDPB in Sprague-Dawley rats; format: in vivo; settings: for concentration at 18 h / concentration at 24 h / concentration at 36 h / concentration at 48 h: rat, in vivo
Experimental: In this study, we measured the brain concentration of DPB. Brains were collected as soon as possible after euthanasia from each rat. They were stored in a freezer at −80° C. prior to determination of DPB brain tissue concentrations. Table 6 summarizes the brain concentrations of DPB after oral administration of DPB and sodium salt of DPB in Sprague-Dawley rats.

[4] = system: seizure induced either by electroshock or pentylenetetrazole; settings: mice, given by stomach tube; cited from earlier work
in vivo = settings: dog, analyte MMMDPB
Experimental: as §1, §2
Blood samples were obtained pre-dose and 0.25, 0.5, 1, 2, 3, 4, 6, 9, 12, 15, 18, and 24 hours after dosing. Venous blood (˜1 mL) were drawn and collected in lithium heparin (anticoagulant). Blood samples were spun in a refrigerated centrifuge and plasma were stored at −80° C. prior to analysis. […] Calibration curves were obtained using a weighted (1/C^2) least squares linear regression analysis of peak area ratio (analyte/internal standard) versus the nominal concentration of the calibration standards. Concentrations were obtained by interpolation from the run defined calibration curve. Regressions and figures were generated by PE Sciex Analyst Version 1.2 software.
Plasma samples were thawed and subjected to solid phase extraction with 2 mL acetonitrile prior to HPLC method with Tandem Mass Spectrometry Detection. Chromatographic conditions were performed as followed: […]

[5] = female, po, Sprague-Dawley rats, female, oral 150 mg/kg, analyte DPB in plasma, read-out: AUC0-t
[6] = female, po, female, oral 150 mg/kg, analyte DPB, read-out: AUC0-36
[7] = female, po, female, oral 150 mg/kg, analyte DPB, read-out: AUC0-48
[8] = male, po, Sprague-Dawley rats, male, oral 150 mg/kg, analyte DPB in plasma, read-out: AUC0-t
[9] = male, po, male, oral 150 mg/kg, analyte DPB, read-out: AUC0-36
[10] = male, po, male, oral 150 mg/kg, analyte DPB, read-out: AUC0-48
[11] = Sprague-Dawley rats, female, oral 150 mg/kg, analyte DPB in plasma
[12] = Sprague-Dawley rats, male, oral 150 mg/kg, analyte DPB in plasma
[13] = dog, in vivo, po, oral 75 mg/kg, analyte DPB in plasma, read-out: AUC0-t
[14] = dog, in vivo, po, oral 75 mg/kg, analyte DPB, read-out: AUC0-24
[15] = dog, in vivo, po, oral 75 mg/kg, analyte DPB, read-out: AUC0-36
[16] = dog, in vivo, po, oral 75 mg/kg, analyte DPB, read-out: AUC0-48
[17] = dog, in vivo, oral 75 mg/kg, analyte DPB in plasma
[18] = Sprague-Dawley rats, female, IV infusion 150 mg/kg, analyte DPB in plasma
[19] = Sprague-Dawley rats, male, IV infusion 150 mg/kg, analyte DPB in plasma
[20] = dog, in vivo, IV infusion 75 mg/kg, analyte DPB in plasma
[21] = oral 75 mg/kg, relative to oral DPB free acid

O=C1NC(=O)C(c2ccccc2)(c2ccccc2)C(=O)N1 [DPB, 5,5-diphenyl barbituric acid, reference compound] gave an AUC(0-t) [1, 5] of 1950 µg·h/mL, an AUC(0-t) [1, 6] of 1600 µg·h/mL and an AUC(0-t) [1, 7] of 1950 µg·h/mL. For the same molecule, the AUC(0-t) [1, 8] was 776 µg·h/mL, the AUC(0-t) [1, 9] was 757 µg·h/mL and the AUC(0-t) [1, 10] was 776 µg·h/mL. It also gave a Cmax [1, 11] of 74 µg/mL, a Tmax [1, 11] of 12 h and a half-life [1, 11] of 1990 min. The Cmax [1, 12] was 38.3 µg/mL, the Tmax [1, 12] was 6 h and the half-life [1, 12] was 396 min. The AUC(0-t) [2, 13] was 222 µg·h/mL, the AUC(0-t) [2, 14] was 231 µg·h/mL and the AUC(0-t) [2, 15] was 234 µg·h/mL. The AUC(0-t) [2, 16] was 234 µg·h/mL, the Cmax [2, 17] was 18.7 µg/mL and the Tmax [2, 17] was 6.5 h. For the same molecule, the half-life [2, 17] was 240 min, the “Mean brain concentration of DPB” value ([3]; male, oral 150 mg/kg, 48 hr) was “BQL” and the protection from seizure [4] was “effective”.
For COCN1C(=O)NC(=O)C(c2ccccc2)(c2ccccc2)C1=O [MMMDPB, monomethoxymethyl-5,5-diphenyl barbituric acid, reference compound], the bioavailability (in vivo; Beagle, Beagle dogs, oral 30 mg/kg vs IV 15 mg/kg, read-out: F (absolute bioavailability)) was 107%, the bioavailability (in vivo; Beagle, po, 30 mg/kg, mean oral bioavailability of MMMDPB, Beagle dogs, oral 30 mg/kg, mean) was 107% and the bioavailability (in vivo; Beagle, po, 30 mg/kg, oral bioavailability of MMMDPB, range, Beagle dogs, oral 30 mg/kg, range over animals) was 43 to 177%.
For O=C1NC(=O)C(c2ccccc2)(c2ccccc2)C(=O)N1.[Na] [NaDPB, sodium 5,5-diphenyl barbiturate], the “AUC0-t for DPB, increase versus oral DPB” value ([1]; Sprague-Dawley rats, female, oral 150 mg/kg, relative to oral DPB free acid) was about 2 fold, the AUC(0-t) ([1]; female, iv, Sprague-Dawley rats, female, IV infusion 150 mg/kg, analyte DPB in plasma, read-out: AUC0-t) was 4330 µg·h/mL and the AUC(0-t) ([1]; female, iv, female, IV infusion 150 mg/kg, analyte DPB, read-out: AUC0-36) was 4760 µg·h/mL. The AUC(0-t) [1, 5] was 4040 µg·h/mL, the AUC(0-t) [1, 6] was 3130 µg·h/mL and the AUC(0-t) [1, 7] was 4040 µg·h/mL. The AUC(0-t) ([1]; male, iv, Sprague-Dawley rats, male, IV infusion 150 mg/kg, analyte DPB in plasma, read-out: AUC0-t) was 4030 µg·h/mL, the AUC(0-t) ([1]; male, iv, male, IV infusion 150 mg/kg, analyte DPB, read-out: AUC0-36) was 4610 µg·h/mL and the AUC(0-t) ([1]; male, iv, male, IV infusion 150 mg/kg, analyte DPB, read-out: AUC0-48) was 5690 µg·h/mL. The AUC(0-t) [1, 8] was 3410 µg·h/mL, the AUC(0-t) [1, 9] was 2720 µg·h/mL and the AUC(0-t) [1, 10] was 3410 µg·h/mL. The Cmax [1, 18] was 174 µg/mL, the Tmax [1, 18] was 2 h and the half-life [1, 18] was 1610 min. The Cmax [1, 11] was 104 µg/mL, the Tmax [1, 11] was 12 h and the half-life [1, 11] was 1970 min. The bioavailability ([1]; Sprague-Dawley rats, female, oral 150 mg/kg, analyte DPB) was 87.7%, the Cmax [1, 19] was 184 µg/mL and the Tmax [1, 19] was 1 h. It also gave a half-life [1, 19] of 1450 min, a Cmax [1, 12] of 86.9 µg/mL and a Tmax [1, 12] of 18 h. The half-life [1, 12] was 1060 min, the bioavailability ([1]; Sprague-Dawley rats, male, oral 150 mg/kg, analyte DPB) was 70.6% and the AUC(0-t) ([2]; dog, in vivo, iv, IV infusion 75 mg/kg, analyte DPB in plasma, read-out: AUC0-t) was 1570 µg·h/mL. For the same molecule, the AUC(0-t) ([2]; dog, in vivo, iv, IV infusion 75 mg/kg, analyte DPB, read-out: AUC0-24) was 1410 µg·h/mL, the AUC(0-t) ([2]; dog, in vivo, iv, IV infusion 75 mg/kg, analyte DPB, read-out: AUC0-36) was 1600 µg·h/mL and the AUC(0-t) ([2]; dog, in vivo, iv, IV infusion 75 mg/kg, analyte DPB, read-out: AUC0-48) was 1620 µg·h/mL. For the same molecule, the AUC(0-t) [2, 13] was 883 µg·h/mL, the AUC(0-t) [2, 14] was 883 µg·h/mL and the AUC(0-t) [2, 15] was 962 µg·h/mL. It also gave an AUC(0-t) [2, 16] of 962 µg·h/mL, a Cmax [2, 20] of 95.7 µg/mL and a Tmax [2, 20] of 0.5 h. For the same molecule, the half-life [2, 20] was 360 min, the bioavailability ([2]; dog, in vivo, oral 75 mg/kg vs IV 75 mg/kg, read-out: absolute bioavailability of DPB) was about 58% and the Cmax [2, 17] was 54.2 µg/mL. For the same molecule, the Tmax [2, 17] was 7.8 h, the half-life [2, 17] was 354 min and the “AUC0-t for DPB, increase versus oral DPB” value [2, 21] was about 4 fold. The “Cmax for DPB, increase versus oral DPB” value [2, 21] was about 3 fold, the concentration at 18 h ([3]; female, IV infusion 150 mg/kg) was 36100 ng/g and the concentration at 24 h ([3]; female, IV infusion 150 mg/kg) was 40700 ng/g. The concentration at 36 h ([3]; female, IV infusion 150 mg/kg) was 21900 ng/g, the concentration at 24 h ([3]; female, oral 150 mg/kg) was 25800 ng/g and the concentration at 36 h ([3]; female, oral 150 mg/kg) was 28400 ng/g. The concentration at 48 h ([3]; female, oral 150 mg/kg, 48 hr) was 14900 ng/g, the concentration at 18 h ([3]; male, IV infusion 150 mg/kg) was 41200 ng/g and the concentration at 24 h ([3]; male, IV infusion 150 mg/kg) was 35600 ng/g. For the same molecule, the concentration at 36 h ([3]; male, IV infusion 150 mg/kg) was 27500 ng/g, the concentration at 24 h ([3]; male, oral 150 mg/kg) was 29900 ng/g and the concentration at 36 h ([3]; male, oral 150 mg/kg) was 23600 ng/g. It also gave a concentration at 48 h ([3]; male, oral 150 mg/kg, 48 hr) of 9460 ng/g.
With COCN1C(=O)NC(=O)C(c2ccccc2)(c2ccccc2)C1=O.[Na] [NaMMMDPB, sodium monomethoxymethyl-5,5-diphenyl barbiturate] the bioavailability (in vivo; in vivo, 30 mg/kg, oral 30 mg/kg vs IV 15 mg/kg, read-out: F (absolute bioavailability)) was 60%, the bioavailability (in vivo; in vivo, po, 30 mg/kg, mean oral bioavailability of MMMDPB, oral 30 mg/kg, mean) was 60% and the bioavailability (in vivo; in vivo, po, 30 mg/kg, oral bioavailability of MMMDPB, range, oral 30 mg/kg, range over animals) was 34 to 99%.
